Test systems include 786-0; A498; A549; COLO 205; HL-60; HT-29; IGROV-1; K562; M14; MDA-N; OVCAR-5; RPMI-8226; RXF 393; SF-268; SK-OV-3; UACC-257; HOP-92; LOX IMVI; SF-295.
Experiment in all cases: growth of human tumour cells (NCI), 48 h

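1) Cells in 96-well plates. 2) Compound, 48 h, 5 concentrations. 3) Linear interpolation between surrounding doses. 4) Unreached endpoint = highest concentration. GI50: concentration for 50% inhibition of growth.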 The source made the active and inactive calls. Rule as the data show it: active = GI50 up to about 1.1 µM and inactive = higher.

On to `O=c1cc(CSc2c(-c3ccccc3)c(=O)n(-c3ccccc3)c(=S)n2-c2ccccc2)[nH]c(=O)[nH]1`, for which the GI50 with 786-0, in the assay on A498, in the assay on A549, with COLO 205, in the assay on HL-60 and with HT-29 was > 100 µM (inactive) each time. The GI50 in the assay with IGROV-1, with K562, in the assay with M14, with MDA-N, in the assay with OVCAR-5 and with RPMI-8226 was > 100 µM (inactive) each time. Also, the GI50 with RXF 393, in the assay on SF-268, in the assay on SK-OV-3 and in the assay on UACC-257 was > 100 µM (inactive) each time.
With `O=C(/C=C/c1ccccc1)/C=C/c1ccccc1O`, the GI50 is 16.7 µM (inactive) with 786-0; 30.1 µM (inactive) with A498; 23.9 µM (inactive) with A549; 17.3 µM (inactive) in the assay on COLO 205; 12.9 µM (inactive) with HL-60; 83.8 µM (inactive) in the assay with HOP-92. The GI50 in the assay with HT-29 was 24.4 µM (inactive); in the assay with IGROV-1, 18.7 µM (inactive); with K562, 16.4 µM (inactive); in the assay with LOX IMVI, 18.2 µM (inactive); with M14 it was 21 µM (inactive); in the assay on OVCAR-5, 29.3 µM (inactive). Also, the GI50 was 16.4 µM (inactive) in the assay on RPMI-8226; 20.8 µM (inactive) in the assay on RXF 393; 32.9 µM (inactive) in the assay with SF-268; 24.4 µM (inactive) in the assay on SF-295; 19.1 µM (inactive) in the assay on SK-OV-3; 20.8 µM (inactive) in the assay on UACC-257.
As for `COc1ccc2nc3n(c2c1)C(c1c(F)cccc1Cl)SC3` (configuration not stated), the GI50 with 786-0 was > 100 µM (inactive); in the assay on A498, > 100 µM (inactive); in the assay with A549, > 100 µM (inactive); in the assay with COLO 205 it was > 100 µM (inactive); in the assay on HL-60, 9.31 µM (inactive); with HOP-92, 41.8 µM (inactive). Besides, the GI50 in the assay with IGROV-1, with K562, with LOX IMVI, with M14, with MDA-N and in the assay with OVCAR-5 was > 100 µM (inactive) in each case. The GI50 with RPMI-8226, with RXF 393, in the assay on SF-295, in the assay with SK-OV-3 and in the assay on UACC-257 was > 100 µM (inactive) throughout.
Consider `COC(=O)C1=C(c2cc(OC)c(OC)c(OC)c2)OC(c2cc(OC)c(OC)c(OC)c2)C1COC(C)=O` (configuration not stated), for which the GI50 was 26.1 µM (inactive) in the assay on 786-0; 51.5 µM (inactive) in the assay on A498; 51.4 µM (inactive) in the assay on A549; 18.2 µM (inactive) in the assay on COLO 205; 10.3 µM (inactive) in the assay with HL-60; 10.3 µM (inactive) with HOP-92. For the same molecule, the GI50 with HT-29 was 35.5 µM (inactive); with IGROV-1, 54.1 µM (inactive); in the assay on K562, 24 µM (inactive); in the assay on LOX IMVI, 20.8 µM (inactive); in the assay on M14, 41 µM (inactive); with OVCAR-5, 18.1 µM (inactive). Also, the GI50 with RPMI-8226 is 29.1 µM (inactive); in the assay with RXF 393 it was 40.6 µM (inactive); with SF-268 it was > 100 µM (inactive); with SF-295, 45.2 µM (inactive); in the assay with SK-OV-3, 44.8 µM (inactive); in the assay with UACC-257 it was 95.7 µM (inactive).
For the molecule `COc1ccc(C(O)c2nccn2C)c(OC)c1` (configuration not stated), the GI50 in the assay on 786-0, in the assay on A549, in the assay with COLO 205, in the assay on HL-60, with HOP-92 and with HT-29 was > 100 µM (inactive) throughout. In addition, the GI50 in the assay on IGROV-1, in the assay with K562, in the assay with M14, in the assay on MDA-N, in the assay with OVCAR-5 and in the assay with RPMI-8226 was > 100 µM (inactive) throughout. Moreover, the GI50 is > 100 µM (inactive) in the assay with RXF 393; > 100 µM (inactive) with SF-268; > 100 µM (inactive) in the assay with SF-295; 17.4 µM (inactive) in the assay with SK-OV-3; > 100 µM (inactive) in the assay on UACC-257.
Regarding `CC1=C(C(=O)Nc2ccc([N+](=O)[O-])cc2)C(c2ccc(N(C)C)cc2)C(C(=O)Nc2ccc([N+](=O)[O-])cc2)=C(C)N1`, the GI50 in the assay with 786-0 is 23.3 µM (inactive); with A498, 20.7 µM (inactive); in the assay on A549, 21.2 µM (inactive); in the assay on COLO 205, 15.4 µM (inactive); in the assay on HL-60 it was 13.1 µM (inactive); in the assay with HOP-92, 12.1 µM (inactive). Further, the GI50 is 23.4 µM (inactive) in the assay on HT-29; 19.1 µM (inactive) with IGROV-1; 6.68 µM (inactive) in the assay on K562; 9.04 µM (inactive) in the assay on LOX IMVI; 16.9 µM (inactive) in the assay on M14; 23.2 µM (inactive) in the assay with OVCAR-5. In addition, the GI50 in the assay with RPMI-8226 was 12.2 µM (inactive); in the assay on RXF 393, 12.1 µM (inactive); in the assay with SF-268, 23.8 µM (inactive); with SF-295, 27.5 µM (inactive); with SK-OV-3 it was 23.4 µM (inactive); in the assay with UACC-257, 16.4 µM (inactive).
For `CC1=C(C(=O)Nc2cccc(C(F)(F)F)c2)C(c2ccccc2F)C(C(=O)Nc2cccc(C(F)(F)F)c2)=C(C)N1`, the GI50 in the assay with 786-0 was 6.49 µM (inactive); in the assay on A498 it was 9.16 µM (inactive); with A549, 4.58 µM (inactive); with COLO 205 it was 4.82 µM (inactive); with HL-60, 2.69 µM (inactive); in the assay with HOP-92, 2.8 µM (inactive). In addition, the GI50 with HT-29 was 3.66 µM (inactive); in the assay with IGROV-1, 11.3 µM (inactive); in the assay with K562 it was 3.96 µM (inactive); in the assay on LOX IMVI, 5.37 µM (inactive); with M14, 4.59 µM (inactive); with OVCAR-5, 10.5 µM (inactive). Besides, the GI50 is 2.58 µM (inactive) in the assay on RPMI-8226; 3.57 µM (inactive) in the assay with RXF 393; 6.52 µM (inactive) in the assay with SF-268; 6.52 µM (inactive) with SF-295; 10.4 µM (inactive) with SK-OV-3; 8.65 µM (inactive) in the assay on UACC-257.
As to `c1ccc(-c2[nH]c(-c3ccccc3)c(-c3cnccn3)c2-c2cnccn2)cc1`, the GI50 in the assay with 786-0, with A498, in the assay with A549, in the assay with COLO 205, in the assay with HL-60 and in the assay with HOP-92 was > 100 µM (inactive) each time. Moreover, the GI50 was 91.2 µM (inactive) in the assay with HT-29; > 100 µM (inactive) in the assay on IGROV-1; > 100 µM (inactive) in the assay with K562; > 100 µM (inactive) in the assay on LOX IMVI; > 100 µM (inactive) with M14; > 100 µM (inactive) in the assay on OVCAR-5. Also, the GI50 is 82.6 µM (inactive) in the assay on RPMI-8226; > 100 µM (inactive) with RXF 393; > 100 µM (inactive) with SF-268; > 100 µM (inactive) in the assay on SF-295; > 100 µM (inactive) in the assay on SK-OV-3; > 100 µM (inactive) in the assay with UACC-257.
Turning to `CN(C)S(=O)(=O)/N=C/c1cccc(/C=N/S(=O)(=O)N(C)C)c1`, the GI50 with 786-0 is > 100 µM (inactive); in the assay with A498 it was > 100 µM (inactive); in the assay with A549 it was > 100 µM (inactive); in the assay with COLO 205, 65.9 µM (inactive); in the assay on HL-60, > 100 µM (inactive); in the assay with HOP-92 it was 32.1 µM (inactive). Also, the GI50 in the assay on K562 is 52.4 µM (inactive); in the assay on LOX IMVI it was > 100 µM (inactive); in the assay on M14, > 100 µM (inactive); in the assay on MDA-N, 31 µM (inactive); with OVCAR-5, > 100 µM (inactive); with RPMI-8226 it was 63.1 µM (inactive). Further, the GI50 was 61.5 µM (inactive) with SF-268, 0.728 µM (active) in the assay with SF-295, > 100 µM (inactive) with SK-OV-3 and > 100 µM (inactive) in the assay with UACC-257.
With `NNC(=S)N/N=C(\c1nc2ccc(Cl)cc2nc1O)C(O)c1ccc(Cl)cc1Cl` (configuration not stated), the GI50 with 786-0, with A498, in the assay on A549, in the assay on COLO 205, with HL-60 and in the assay with HOP-92 was > 100 µM (inactive) each time. Also, the GI50 in the assay on HT-29, in the assay on IGROV-1, with K562, in the assay on LOX IMVI, with M14 and in the assay on OVCAR-5 was > 100 µM (inactive) throughout. For the same molecule, the GI50 with RPMI-8226, with RXF 393, in the assay with SF-268, in the assay with SF-295, in the assay with SK-OV-3 and in the assay on UACC-257 was > 100 µM (inactive) each time.
For the molecule `CC1=NN(C(=O)Cc2ccccc2)C(=O)/C1=C\c1ccc(O)cc1`, the GI50 in the assay with 786-0, in the assay with A498, in the assay with A549, with COLO 205, in the assay on HL-60 and in the assay with HOP-92 was > 100 µM (inactive) in each case. Besides, the GI50 with HT-29, with IGROV-1, in the assay with K562, with LOX IMVI, in the assay on M14 and in the assay with OVCAR-5 was > 100 µM (inactive) throughout. The GI50 in the assay with RPMI-8226, in the assay with RXF 393, with SF-268, in the assay with SF-295, with SK-OV-3 and in the assay on UACC-257 was > 100 µM (inactive) throughout.

The record behind these values is ChEMBL document CHEMBL1201862, “PubChem BioAssay data set” (2004).
